From PubChem BioAssay (NCI)
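Exposure lasted 48 hours, with cells grown in 96-well plates and compounds tested at five concentrations. At the GI50, growth is halved. TGI: concentration producing complete growth inhibition.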

How the values were obtained:
Experiment in all cases: inhibition of tumour cell growth, NCI panel, 48 h
[1] = system: LOX IMVI melanoma
[2] = system: UACC-257 melanoma
[3] = system: SF-295 CNS
[4] = system: MOLT-4 leukemia
[5] = system: ACHN renal
[6] = system: BT-549 breast
[7] = system: DU-145 prostate
[8] = system: NCI/ADR-RES ovarian
[9] = system: EKVX NSCLC
[10] = system: M14 melanoma
[11] = system: IGROV1 ovarian
[12] = system: A498 renal
[13] = system: OVCAR-8 ovarian
[14] = system: SK-MEL-28 melanoma
[15] = system: A549 NSCLC
[16] = system: SK-OV-3 ovarian
[17] = system: HS 578T breast
[18] = system: HT29 colon
[19] = system: RPMI-8226 leukemia
[20] = system: SF-539 CNS
[21] = system: MDA-MB-231 breast
[22] = system: UO-31 renal
[23] = system: SK-MEL-5 melanoma
[24] = system: HCT-15 colon
[25] = system: OVCAR-3 ovarian
[26] = system: PC-3 prostate
[27] = system: SN12C renal
[28] = system: HOP-92 NSCLC
[29] = system: CAKI-1 renal
[30] = system: COLO 205 colon
[31] = system: NCI-H522 lung
[32] = system: SK-MEL-2 melanoma
[33] = system: 786-0 renal
[34] = system: HL-60(TB) leukemia
[35] = system: SNB-19 CNS
[36] = system: HCC-2998 colon
[37] = system: OVCAR-4 ovarian
[38] = system: HOP-62 NSCLC
[39] = system: MALME-3M melanoma
[40] = system: NCI-H226 lung
[41] = system: SR leukemia
[42] = system: NCI-H460 lung
[43] = system: T-47D breast
[44] = system: OVCAR-5 ovarian
[45] = system: SNB-75 CNS
[46] = system: U251 CNS
[47] = system: KM12 colon
[48] = system: K-562 leukemia
[49] = system: RXF 393 renal
[50] = system: MCF7 breast
[51] = system: TK-10 renal
[52] = system: SW-620 colon
[53] = system: HCT-116 colon
[54] = system: CCRF-CEM leukemia
[55] = system: UACC-62 melanoma
[56] = system: MDA-MB-435
[57] = system: SF-268 CNS

## CN1CCN(Cc2ccc(NC(=O)c3cncc(C#Cc4cnc(N)nc4)c3)cc2C(F)(F)F)CC1
[1]
  GI50: 189 nM
  TGI: 846 nM
[2]
  GI50: 773 nM
  TGI: 6120 nM
[3]
  GI50: 1430 nM
  TGI: 9220 nM
[4]
  GI50: 449 nM
  TGI: 11600 nM
[5]
  GI50: 244 nM
  TGI: 5230 nM
[6]
  GI50: 1240 nM
  TGI: 5470 nM
[7]
  GI50: 385 nM
  TGI: 11400 nM
[8]
  GI50: 3560 nM
  TGI: 19900 nM
[9]
  GI50: 1200 nM
  TGI: 14600 nM
[10]
  GI50: 178 nM
  TGI: 1280 nM
[11]
  GI50: 189 nM
  TGI: 5210 nM
[12]
  GI50: 228 nM
  TGI: 1140 nM
[13]
  GI50: 1070 nM
  TGI: 9570 nM
[14]
  GI50: 560 nM
  TGI: 3540 nM
[15]
  GI50: 1010 nM
  TGI: 8740 nM
[16]
  GI50: 174 nM
  TGI: 1120 nM
[17]
  GI50: 331 nM
  TGI: 2290 nM
[18]
  GI50: 351 nM
  TGI: 6010 nM
[19]
  GI50: 660 nM
  TGI: 6430 nM
[20]
  GI50: 263 nM
  TGI: 3780 nM
[21]
  GI50: 258 nM
  TGI: 3460 nM
[22]
  GI50: 396 nM
  TGI: 2880 nM
[23]
  GI50: 1180 nM
  TGI: 5700 nM
[24]
  GI50: 556 nM
  TGI: 12900 nM
[25]
  GI50: 957 nM
  TGI: 10100 nM
[26]
  GI50: 821 nM
  TGI: 17200 nM
[27]
  GI50: 332 nM
  TGI: 5740 nM
[28]
  GI50: 157 nM
  TGI: 1230 nM
[29]
  GI50: 150 nM
  TGI: 763 nM
[30]
  GI50: 398 nM
  TGI: 5610 nM
[31]
  GI50: 376 nM
  TGI: 6930 nM
[32]
  GI50: 110 nM
  TGI: 339 nM
[33]
  GI50: 849 nM
  TGI: 5790 nM
[34]
  GI50: 283 nM
  TGI: 3590 nM
[35]
  GI50: 4380 nM
  TGI: 27600 nM
[36]
  GI50: 1350 nM
  TGI: 9530 nM
[37]
  GI50: 553 nM
  TGI: 9750 nM
[38]
  GI50: 952 nM
  TGI: 6430 nM
[39]
  GI50: 150 nM
  TGI: 653 nM
[40]
  GI50: 203 nM
  TGI: 2220 nM
[41]
  GI50: 425 nM
  TGI: 8480 nM
[42]
  GI50: 306 nM
  TGI: 6230 nM
[43]
  GI50: 916 nM
  TGI: 50000 nM
[44]
  GI50: 994 nM
  TGI: 9760 nM
[45]
  GI50: 123 nM
  TGI: 1000 nM
[46]
  GI50: 521 nM
  TGI: 9280 nM
[47]
  GI50: 52.1 nM
  TGI: 7270 nM
[48]
  GI50: 5 nM
  TGI: 50000 nM
[49]
  GI50: 346 nM
  TGI: 4180 nM
[50]
  GI50: 1470 nM
  TGI: 11600 nM
[51]
  GI50: 810 nM
  TGI: 7170 nM
[52]
  GI50: 490 nM
  TGI: 6410 nM
[53]
  GI50: 231 nM
  TGI: 5160 nM
[54]
  GI50: 1160 nM
  TGI: 16000 nM
[55]
  GI50: 298 nM
  TGI: 3390 nM
[56]
  GI50: 247 nM
  TGI: 5560 nM
[57]
  GI50: 930 nM
  TGI: 8720 nM
